Laboratory results as given in patent US4157347A, “N-cyano isothioureas” (Bristol-Myers Company, priority 1978, dated 1979).
Entries after “also recorded” stand apart in the source; their conditions may differ. Like-named read-outs stand apart in the source and are kept apart here.

Assays:
histamine H2-receptors = target: T1, histamine H2-receptors (Cavia porcellus, UniProt P47747); experiment: Histamine H2-receptor antagonism, isolated guinea pig right atria assay; assay type: cell-based; details: for Histamine ED50 With 95% Confidence Limits: histamine ED50 in presence of test compound 1 × 10^-5 M, 30 min incubation; for Concentration-Response Curve Displacement Factor: test compound 1 × 10^-5 M
T1 construct: The spontaneously beating right atrium was dissected free from other tissues; from tissue; host or cells: isolated spontaneously beating right atrium of male Hartley guinea pigs
Protocol: Subsequent investigations by Hughes and Coret, Proc. Soc. […] Black et al., Agents and Actions, 3, 133 (1973) and Brimblecombe et al., Fed. […] The present comparative studies were carried out using a modification of the procedure reported by Reinhardt et al., Agents and Actions, 4, 217 (1974).
Male Hartley strain guinea pigs (350-450 gm.) were sacrificed by a blow on the head. The heart was excised and placed in a Petri dish of oxygenated (95% O2, 5% CO2) modified Krebs solution (g./liter: NaCl 6.6, KCl 0.35, MgSO4.7 H2 O 0.295, KH2 PO4 0.162, CaCl2 0.238, NaHCO3 2.1 and dextrose 2.09). The spontaneously beating right atrium was dissected free from other tissues and a silk thread (4-0) attached to each end. The atrium was suspended in a 20 ml. muscle chamber containing oxygenated modified Krebs solution maintained at 32° C. Atrial contractions were recorded isometrically by means of a Grass FT 0.03 force displacement transducer and recordings of contractile force and rate were made with a Beckman RP Dynograph.
A resting tension of 1 g. was applied to the atrium and it was allowed to equilibrate for 1 hour.
Concentration-response curve displacement factors were calculated as follows: [formula] The factor obtained for BL-5641 was then expressed as a ratio of the factor obtained for cimetidine. [formula]

gastric acid output = experiment: Gastric antisecretory activity in the two hour pylorus ligated (Shay) rat; assay type: in vivo, rat (male Long Evans)
Description: Determination of Gastric Antisecretory Activity in the Two Hour Pylorus Ligated (Shay) Rat
The pyloric ligation procedure in the rat was designed by Shay et al., Gastroenterology, 5,53 (1945) for the study of perforating gastric ulcers; however, as the method became known, it was also employed as a means of studying rat gastric secretion, Shay et al., Gastroenterology, 26, 906 (1954), Brodie, D. A., Am. J. Dig. Dis., 11, 231 (1966). A modification of this procedure is presently used to evaluate compounds for gastric antisecretory activity.
Male Long Evans rats, 280-300 gm., are used. The animals are placed in individual cages and fasted for 24 hours with free access to water. Under ether anesthesia, the stomach is reached through a midline incision, and a cotton-thread ligature is placed around the pylorus. After wound closure, ether administration is stopped and either BL-5641, cimetidine or vehicle are administered intraperitoneally in a volume of […]. BL-5641 and cimetidine are solubilized with one equivalent of HCl and brought to the proper volume with water. The animals are returned to their cages from which the water bottles have been removed and two hours later are sacrificed with ether. The stomach is removed and the two hour gastric collection is drained into a graduated test tube for volume determination. Titratable acidity is measured by titrating a one ml. sample to pH 7.0 with 0.02 N NaOH, using an Autoburet and an electrometric pH meter (Radiometer). Titratable acid output is calculated in microequivalents by multiplying the volume in milliliters by the acid concentration in milliequivalents per liter. The percent inhibition of acid output is calculated as follows [formula]

[1] = system: histamine-induced gastric acid output; experiment: Gastric antisecretory activity in the gastric fistula dog (histamine-induced gastric acid output); assay type: in vivo, dog (beagle)
Protocol: Determination of Gastric Antisecretory Activity in the Gastric Fistula Dog
Thomas type [Thomas, J. E., Proc. Soc. exp. Biol. Med., 46, 260 (1941)] stainless steel cannulae are inserted into the stomachs of beagle dogs (10-12 kg.) just orad to the pyloric gland area near the greater curvature to provide a chronic gastric fistula. Animals are allowed to recover for at least two months before any testing is done. Dogs are fasted overnight (~18 hours) with water ad lib prior to each experiment. The dogs are placed in a sling and an eight inch inside needle catheter (C. R. Baird, Inc.) with a two inch 17 gauge needle is inserted into a leg vein for purposes of drug administration. Gastric secretions are collected every 15 minutes by gravity drainage from the opened cannula. […] A modification of the procedure described by Grossman and Konturek, Gastroenterology, 66, 517 (1974) was followed. […] Each 15 minute sample of gastric juice is measured to the nearest 0.5 ml. and titratable acidity against 0.02 N NaOH (endpoint pH 7.0) is measured with an Autoburet and pH meter (radiometer). The percent inhibition of acid output is calculated as described in the pylorus ligated rat procedure.

[2] = clinical, in words; cited from earlier work
[3] = in words; cited from earlier work
H2 receptors = details: in words; cited from earlier work
peptic ulcer disease = details: clinical evaluation, in words; cited from earlier work
[4] = 10 μMole/kg. ip, 2 h (BL-5641 2.76 mg/kg; cimetidine 2.5 mg/kg)
[5] = 20 μMole/kg. ip, 2 h (BL-5641 5.53 mg/kg; cimetidine 5 mg/kg)
[6] = 40 μMole/kg. ip, 2 h (BL-5641 11.1 mg/kg; cimetidine 10 mg/kg)
[7] = 0.75 μM/kg. iv, 15 min, dog 23553, N=1
[8] = 0.75 μM/kg. iv, 30 min, dog 23553, N=1
[9] = 0.75 μM/kg. iv, 45 min, dog 23553, N=1
[10] = 0.75 μM/kg. iv, 60 min, dog 23553, N=1
[11] = 0.75 μM/kg. iv, 75 min, dog 23553, N=1
[12] = 0.75 μM/kg. iv, 90 min, dog 23553, N=1
[13] = 0.75 μM/kg. iv, 105 min, dog 23553, N=1
[14] = 0.75 μM/kg. iv, 120 min, dog 23553, N=1
[15] = 1.5 μM/kg. iv, 15 min, dog 24895, N=1
[16] = 1.5 μM/kg. iv, 30 min, dog 24895, N=1
[17] = 1.5 μM/kg. iv, 45 min, dog 24895, N=1
[18] = 1.5 μM/kg. iv, 60 min, dog 24895, N=1
[19] = 1.5 μM/kg. iv, 75 min, dog 24895, N=1
[20] = 1.5 μM/kg. iv, 90 min, dog 24895, N=1
[21] = 1.5 μM/kg. iv, 105 min, dog 24895, N=1
[22] = 1.5 μM/kg. iv, 120 min, dog 24895, N=1
[23] = 3 μM/kg. iv, 15 min, dog 23606, N=1
[24] = 3 μM/kg. iv, 30 min, dog 23606, N=1
[25] = 3 μM/kg. iv, 45 min, dog 23606, N=1
[26] = 3 μM/kg. iv, 60 min, dog 23606, N=1
[27] = 3 μM/kg. iv, 75 min, dog 23606, N=1
[28] = 3 μM/kg. iv, 90 min, dog 23606, N=1
[29] = 3 μM/kg. iv, 105 min, dog 23606, N=1
[30] = 3 μM/kg. iv, 120 min, dog 23606, N=1
[31] = 6 μM/kg. iv, 15 min, dog 22619, N=1
[32] = 6 μM/kg. iv, 30 min, dog 22619, N=1
[33] = 6 μM/kg. iv, 45 min, dog 22619, N=1
[34] = 6 μM/kg. iv, 60 min, dog 22619, N=1
[35] = 6 μM/kg. iv, 75 min, dog 22619, N=1
[36] = 6 μM/kg. iv, 90 min, dog 22619, N=1
[37] = 6 μM/kg. iv, 105 min, dog 22619, N=1
[38] = 6 μM/kg. iv, 120 min, dog 22619, N=1
[39] = 12 μM/kg. iv, 15 min, dog 24136, N=1
[40] = 12 μM/kg. iv, 30 min, dog 24136, N=1
[41] = 12 μM/kg. iv, 45 min, dog 24136, N=1
[42] = 12 μM/kg. iv, 60 min, dog 24136, N=1
[43] = 12 μM/kg. iv, 75 min, dog 24136, N=1
[44] = 12 μM/kg. iv, 90 min, dog 24136, N=1
[45] = 12 μM/kg. iv, 105 min, dog 24136, N=1
[46] = 12 μM/kg. iv, 120 min, dog 24136, N=1

T1 sequence (P47747 whole entry): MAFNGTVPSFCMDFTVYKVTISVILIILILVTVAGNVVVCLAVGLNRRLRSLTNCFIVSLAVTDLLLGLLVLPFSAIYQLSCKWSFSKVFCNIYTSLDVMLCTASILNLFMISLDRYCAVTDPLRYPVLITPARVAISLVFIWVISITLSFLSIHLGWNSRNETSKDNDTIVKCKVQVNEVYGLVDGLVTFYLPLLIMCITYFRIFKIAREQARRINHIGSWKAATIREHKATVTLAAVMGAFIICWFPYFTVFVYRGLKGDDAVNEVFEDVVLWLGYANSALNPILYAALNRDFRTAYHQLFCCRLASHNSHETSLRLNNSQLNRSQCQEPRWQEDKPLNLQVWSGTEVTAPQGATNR

C#CCN=C(NC#N)NCCSCc1[nH]cnc1C [BL-5641, N-Cyano-N'-{2-[(4-methyl-5-imidazolyl)methylthio]ethyl}-N"-propargylguanidine]
Histamine ED50 With 95% Confidence Limits (histamine H2-receptors): 12.44 µg/mL | histamine H2-receptor antagonist potency vs cimetidine (histamine H2-receptors; isolated guinea pig atria, in words): more potent than cimetidine | Concentration-Response Curve Displacement Factor (histamine H2-receptors): 32.7 | % Inhibition of Acid Output (gastric acid output; [4]): 37% | % Inhibition of Acid Output (gastric acid output; [5]): 61% | % Inhibition of Acid Output (gastric acid output; [6]): 80% | ED50 (gastric acid output; Rattus norvegicus, ip, 2 h; read-out: ED50 (inhibition of acid output)): ~11 µmol/kg | potency in inhibition of gastric acid output vs cimetidine (gastric acid output; in words): at least as potent as cimetidine; also recorded: more potent than cimetidine | % Inhibition Acid Output [1, 7]: 51% | % Inhibition Acid Output [1, 8]: 38% | % Inhibition Acid Output [1, 9]: 28% | % Inhibition Acid Output [1, 10]: 28% | % Inhibition Acid Output [1, 11]: 31% | % Inhibition Acid Output [1, 12]: 43% | % Inhibition Acid Output [1, 13]: 42% | % Inhibition Acid Output [1, 14]: 46% | % Inhibition Acid Output [1, 15]: 82% | % Inhibition Acid Output [1, 16]: 72% | % Inhibition Acid Output [1, 17]: 53% | % Inhibition Acid Output [1, 18]: 49% | % Inhibition Acid Output [1, 19]: 33% | % Inhibition Acid Output [1, 20]: 7% | % Inhibition Acid Output [1, 21]: 0% | % Inhibition Acid Output [1, 22]: 0% | % Inhibition Acid Output [1, 23]: 60% | % Inhibition Acid Output [1, 24]: 59% | % Inhibition Acid Output [1, 25]: 36% | % Inhibition Acid Output [1, 26]: 34% | % Inhibition Acid Output [1, 27]: 32% | % Inhibition Acid Output [1, 28]: 42% | % Inhibition Acid Output [1, 29]: 24% | % Inhibition Acid Output [1, 30]: 0% | % Inhibition Acid Output [1, 31]: 82% | % Inhibition Acid Output [1, 32]: 99% | % Inhibition Acid Output [1, 33]: 99% | % Inhibition Acid Output [1, 34]: 95% | % Inhibition Acid Output [1, 35]: 78% | % Inhibition Acid Output [1, 36]: 76% | % Inhibition Acid Output [1, 37]: 52% | % Inhibition Acid Output [1, 38]: 53% | % Inhibition Acid Output [1, 39]: 66% | % Inhibition Acid Output [1, 40]: 99% | % Inhibition Acid Output [1, 41]: 99% | % Inhibition Acid Output [1, 42]: 99% | % Inhibition Acid Output [1, 43]: 99% | % Inhibition Acid Output [1, 44]: 93% | % Inhibition Acid Output [1, 45]: 91% | % Inhibition Acid Output [1, 46]: 73% | duration of activity vs cimetidine ([1]; equal (equimolar) doses iv, in words): of longer duration with BL-5641 than with cimetidine; also recorded: longer duration of activity than cimetidine at equal doses | degree of inhibition of gastric acid output vs cimetidine ([1]; equimolar doses iv, in words): consistently greater | inhibitor of gastric acid output, potency vs cimetidine ([1]; iv, in words): more potent and/or longer acting than cimetidine; also recorded: more potent than cimetidine | onset of effect on gastric acid output ([1]; iv, in words): immediate inhibitory effect on gastric acid output

CNC(=NC#N)NCCSCc1[nH]cnc1C [Cimetidine]
Activity Ratio (histamine H2-receptors): 1.0 | Histamine ED50 With 95% Confidence Limits (histamine H2-receptors): 1.39 µg/mL | Concentration-Response Curve Displacement Factor (histamine H2-receptors): 6.6 | toxicity (agranulocytosis) [2]: without producing agranulocytosis | % Inhibition of Acid Output (gastric acid output; 5 μMole/kg. ip, 2 h (cimetidine 1.25 mg/kg)): 34% | % Inhibition of Acid Output (gastric acid output; [4]): 40% | % Inhibition of Acid Output (gastric acid output; [5]): 60% | % Inhibition of Acid Output (gastric acid output; [6]): 66% | ED50 (gastric acid output; Rattus norvegicus, ip, 2 h, read-out: ED50 (inhibition of acid output)): ~14 µmol/kg | % Inhibition Acid Output [1, 7]: 50% | % Inhibition Acid Output [1, 8]: 10% | % Inhibition Acid Output [1, 9]: 24% | % Inhibition Acid Output [1, 10]: 17% | % Inhibition Acid Output [1, 11]: 35% | % Inhibition Acid Output [1, 12]: 27% | % Inhibition Acid Output [1, 13]: 25% | % Inhibition Acid Output [1, 14]: 19% | % Inhibition Acid Output [1, 15]: 73% | % Inhibition Acid Output [1, 16]: 57% | % Inhibition Acid Output [1, 17]: 60% | % Inhibition Acid Output [1, 18]: 29% | % Inhibition Acid Output [1, 19]: 0% | % Inhibition Acid Output [1, 20]: 18% | % Inhibition Acid Output [1, 21]: 0% | % Inhibition Acid Output [1, 22]: 0% | % Inhibition Acid Output [1, 23]: 43% | % Inhibition Acid Output [1, 24]: 27% | % Inhibition Acid Output [1, 25]: 15% | % Inhibition Acid Output [1, 26]: 0% | % Inhibition Acid Output [1, 27]: 17% | % Inhibition Acid Output [1, 28]: 38% | % Inhibition Acid Output [1, 29]: 8% | % Inhibition Acid Output [1, 30]: 0% | % Inhibition Acid Output [1, 31]: 84% | % Inhibition Acid Output [1, 32]: 96% | % Inhibition Acid Output [1, 33]: 73% | % Inhibition Acid Output [1, 34]: 67% | % Inhibition Acid Output [1, 35]: 65% | % Inhibition Acid Output [1, 36]: 54% | % Inhibition Acid Output [1, 37]: 40% | % Inhibition Acid Output [1, 38]: 32% | % Inhibition Acid Output [1, 39]: 63% | % Inhibition Acid Output [1, 40]: 99% | % Inhibition Acid Output [1, 41]: 89% | % Inhibition Acid Output [1, 42]: 76% | % Inhibition Acid Output [1, 43]: 54% | % Inhibition Acid Output [1, 44]: 48% | % Inhibition Acid Output [1, 45]: 41% | % Inhibition Acid Output [1, 46]: 14% | onset of effect on gastric acid output ([1]; iv, in words): immediate inhibitory effect on gastric acid output | half-life [3]: relatively short | H2 antagonist potency/effectiveness (H2 receptors): as effective an H2 antagonist as metiamide | therapeutic effect in peptic ulcer disease (peptic ulcer disease): effective therapeutic agent in the treatment of peptic ulcer disease
